Where “and” joins values, the source holds several entries; their conditions need not be identical. Identical values can stand only once. Like-named read-outs stand apart in the source and are kept apart here.
How the values were obtained:
hCOX-1 = hCOX-1 (Homo sapiens, UniProt P23219); test: hCOX-1 enzyme inhibition (IC50); format: biochemical; conditions: repeated experimental results listed separately
Description: (§1) The specificity of a given extended duration Cox-2 inhibitor is measured by determining the IC50 or EC50 for each compound described above.

hCOX-2 = target: T1, hCOX-2 (Homo sapiens, UniProt P35354); test: hCOX-2 enzyme inhibition (IC50) and selectivity; format: biochemical; conditions: for hCOX selectivity hCOX-1/hCOX-2: Cox-1 IC50/Cox-2 IC50; for IC50: repeated experimental results listed separately
T1 sequence (P35354 18-604): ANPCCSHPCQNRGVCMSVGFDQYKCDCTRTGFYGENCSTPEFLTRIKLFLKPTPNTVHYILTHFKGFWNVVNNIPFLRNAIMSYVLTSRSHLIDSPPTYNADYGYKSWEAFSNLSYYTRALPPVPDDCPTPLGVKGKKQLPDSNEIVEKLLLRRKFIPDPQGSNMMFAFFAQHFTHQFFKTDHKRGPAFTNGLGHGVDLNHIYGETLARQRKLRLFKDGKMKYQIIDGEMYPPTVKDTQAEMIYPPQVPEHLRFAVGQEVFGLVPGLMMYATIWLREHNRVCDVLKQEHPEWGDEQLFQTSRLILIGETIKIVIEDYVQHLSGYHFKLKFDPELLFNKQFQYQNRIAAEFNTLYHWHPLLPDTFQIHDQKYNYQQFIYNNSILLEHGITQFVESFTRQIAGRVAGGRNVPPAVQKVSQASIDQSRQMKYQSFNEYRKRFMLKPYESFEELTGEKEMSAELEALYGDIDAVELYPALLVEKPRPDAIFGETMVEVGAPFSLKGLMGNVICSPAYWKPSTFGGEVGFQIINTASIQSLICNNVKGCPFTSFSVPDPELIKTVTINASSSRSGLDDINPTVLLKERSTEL
Description: as §1

[1] = Rat pharmacokinetics, single oral dose, non-cassette; format: in vivo; conditions: for half-life: rat
Description: All rat pharmacokinetics data is non-cassette dosed. Non-cassette dosed pharmacokinetics means that each compound was dosed individually (i.e. not part of a cassette of compounds). Cassette-dosing is a technique in which 2 or more compounds are simultaneously administered to an animal and the pharmacokinetics of each compound is monitored individually even though it is in the same animal/blood sample.
At each sample collection time, blood samples were collected from three rats by cardiac puncture and then processed into plasma. […] Plasma drug concentrations were then determined by liquid chromatography-mass spectrometry methods. The mean plasma concentrations from each of the three samples collected at each time point were then plotted as a function of time. This process was repeated for each compound tested.

[2] = Canine cassette-dosed pharmacokinetics; format: in vivo, canines (beagles); conditions: for half-life: beagle, dog, plasma, 2 mg/kg; for increase in plasma half-life in canines: versus 4-methylphenyl compound
Description: Cassette-dosing is a technique in which 2 or more compounds are simultaneously administered to an animal and the pharmacokinetics of each compound is monitored individually even though it is in the same animal/blood sample.
Cassette-dosing refers to the practice of dosing 2 or more compounds simultaneously to animals. […] Blood samples were collected over time intervals ranging from 0 to 50 days into EDTA tubes and plasma harvested. Plasma drug concentrations were then determined for each compound in the cassette by liquid chromatography-mass spectrometry methods. This process was repeated for each group of compounds (cassette) tested.

[3] = Canine pharmacokinetics, compounds dosed individually; format: in vivo, canines (beagles); conditions: beagle, dog, plasma, oral 2 or 4 mg/kg, read-out: Canine t1/2 (converted)
Description: In this example, each compound was administered individually to canines (not cassette dosed). […] Plasma drug concentrations were then determined by liquid chromatography-mass spectrometry methods. This process was repeated for each compound tested.

[4] = system: adjuvant-induced arthritis in male Lewis rats; test: Adjuvant-induced arthritis in rat paws (paw volume); format: in vivo; conditions: single oral dose, 3 mg/kg (FIG. 2) / 3 mg/mL, followed 28 days
Description: This experiment was performed following a modified method of Connor, J. et al. (European J. Pharmacology, 1995, 273:15-24). Briefly, arthritis was induced in pathogen-free, male Lewis rats by an intadermal injection of 20 mg/ml Mycobacterium butyricum suspended in squalene in three sites at the base of the tail. The injection of mycobacteria produces a systemic autoimmune response and subsequent chronic inflammation of the joints with many similarities to rheumatoid arthritis. The induced arthritis was allowed to develop for 14 days at which time animals were given a single oral dose of a Cox-2 selective inhibitor at […]. Effectiveness was assessed by the decrease in rat paw edema (paw volume) for 28 days following the Cox-2 inhibitor dose. Paw volume was determined using a water displacement plethysmometer. To gage the drug response, the paw volumes of rats treated with Cox-2 selective inhibitors were compared to normal healthy rats without induced arthritis and without drug (normal-control group) and rats with induced arthritis but without drug (adjuvant-control group).
All of the compounds tested in this model were effective for a minimum of 5 days.

[5] = cited from earlier work
[6] = plasma, po, 2 mg/kg, plasma, oral 2 mg/kg, non-cassette dosed, read-out: Rat t1/2 (converted)
[7] = po, oral 2 mg/kg each compound, cassette, read-out: Canine Cassette-dosed t1/2 (converted)

Sequence of hCOX-1 (P23219 24-599): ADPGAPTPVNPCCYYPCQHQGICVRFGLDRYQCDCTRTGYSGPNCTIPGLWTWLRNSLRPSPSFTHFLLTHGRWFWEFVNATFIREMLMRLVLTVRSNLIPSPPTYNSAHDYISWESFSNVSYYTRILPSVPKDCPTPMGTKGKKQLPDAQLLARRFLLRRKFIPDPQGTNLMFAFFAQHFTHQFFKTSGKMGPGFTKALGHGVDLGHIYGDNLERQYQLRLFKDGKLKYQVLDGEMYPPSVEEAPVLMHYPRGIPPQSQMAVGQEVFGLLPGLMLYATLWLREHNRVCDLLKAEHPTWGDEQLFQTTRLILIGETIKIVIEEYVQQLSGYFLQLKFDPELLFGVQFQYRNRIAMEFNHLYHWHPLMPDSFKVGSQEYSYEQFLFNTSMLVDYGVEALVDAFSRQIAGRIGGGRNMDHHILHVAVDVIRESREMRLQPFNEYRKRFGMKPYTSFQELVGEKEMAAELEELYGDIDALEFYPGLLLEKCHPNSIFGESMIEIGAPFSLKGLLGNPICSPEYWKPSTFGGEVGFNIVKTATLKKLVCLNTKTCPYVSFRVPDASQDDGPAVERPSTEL

NS(=O)(=O)c1ccc(-n2nc(C(F)(F)F)cc2-c2ccc(F)cc2F)cc1 [4-[5-(2,4-[difluorophenyl)-3-(trifluoromethyl)-1H-pyrazol-1-yl]benzenesulfonamide]
IC50 (hCOX-1): 38400 nM and 14000 nM and 22400 nM | hCOX selectivity hCOX-1/hCOX-2 (hCOX-2): 393 | IC50 (hCOX-2): 149 nM and 36 nM and < 137 nM | half-life [1, 6]: 25 h | half-life [2, 7]: ~716 h | half-life [3]: 233 h

COc1cc(-c2cc(C(F)(F)F)nn2-c2ccc(S(N)(=O)=O)cc2)ccc1Br [4-[5-(4-bromo-3-methoxyphenyl)-3-(trifluoromethyl)-1H-pyrazol-1-yl]benzenesulfonamide]
IC50 (hCOX-1): 30300 nM and 35300 nM | hCOX selectivity hCOX-1/hCOX-2 (hCOX-2): 669 | IC50 (hCOX-2): 45.3 nM and < 137 nM | half-life [3]: 71 h

COc1c(Cl)cc(-c2cc(C(F)(F)F)nn2-c2ccc(S(N)(=O)=O)cc2)cc1Cl [4-[5-(3,5-dichloro-4-methoxyphenyl)-3-(trifluoromethyl)-1H-pyrazol-1-yl]benzenesulfonamide]
IC50 (hCOX-2): 54.7 nM and 39 nM | half-life [2, 7]: ~17 h

COc1ccc(-c2cc(C(F)(F)F)nn2-c2ccc(S(N)(=O)=O)cc2)cc1 [4-[5-(4-methoxyphenyl)-3-(trifluoromethyl)-1H-pyrazol-1-yl]benzenesulfonamide]
half-life [2, 7]: ~21 h

COc1ccc(-c2cc(C(F)(F)F)nn2-c2ccc(S(N)(=O)=O)cc2)cc1C [4-[5-(4-methoxy-3-methylphenyl)-3-(trifluoromethyl)-1H-pyrazol-1-yl]benzenesulfonamide]
half-life [2, 7]: ~36 h

COc1c(C)cc(-c2cc(C(F)(F)F)nn2-c2ccc(S(N)(=O)=O)cc2)cc1C [4-[5-(4-methoxy-3,5-dimethylphenyl)-3-(trifluoromethyl)-1H-pyrazol-1-yl]benzenesulfonamide]
IC50 (hCOX-1): > 100000 nM | IC50 (hCOX-2): 80 nM | half-life [2, 7]: ~18 h

NS(=O)(=O)c1ccc(-n2nc(C(F)(F)F)cc2-c2ccc(Cl)c(Cl)c2)cc1 [4-[5-(3,4-dichlorophenyl)-3-(trifluoromethyl)-1H-pyrazol-1-yl]benzenesulfonamide]
half-life [1, 6]: 157 h | half-life [2, 7]: ~830 h | half-life [3]: 762 h | effectiveness in minimizing rat paw volume over longer time periods [4]: effective extended duration compounds

NS(=O)(=O)c1ccc(-n2nc(C(F)(F)F)cc2-c2ccc(F)cc2)cc1 [4-[5-(4-fluorophenyl)-3-(trifluoromethyl)-1H-pyrazol-1-yl]benzenesulfonamide]
half-life [1, 6]: 32 h | half-life [2, 7]: 572 h | half-life [3]: 289 h

NS(=O)(=O)c1ccc(-n2nc(C(F)(F)F)cc2-c2ccc(Cl)cc2Cl)cc1 [4-[5-(2,4-[dichlorophenyl)-3-(trifluoromethyl)-1H-pyrazol-1-yl]benzenesulfonamide]
half-life [1, 6]: 97 h | half-life [2, 7]: ~771 h | half-life [3]: 466 h

NS(=O)(=O)c1ccc(-n2nc(C(F)(F)F)cc2-c2ccc(F)c(F)c2)cc1 [4-[5-(3,4-difluorophenyl)-3-(trifluoromethyl)-1H-pyrazol-1-yl]benzenesulfonamide]
half-life [1, 6]: 59 h | half-life [2, 7]: ~881 h | half-life [3]: 500 h

NS(=O)(=O)c1ccc(-n2nc(C(F)(F)F)cc2-c2ccc(Cl)cc2)cc1 [4-[5-(4-chlorophenyl)-3-(trifluoromethyl)-1H-pyrazol-1-yl]benzenesulfonamide]
half-life ([1]; plasma, oral, 2 mg/kg, single dosage administration, read-out: Rat half-life (converted)): 192 h | half-life [1, 6]: 193 h | Rat half-life ([1]; single dosage administration): ≤ 190 h | half-life ([2]; oral, cassette-dosed, single dosage, read-out: canine half-life (converted)): ~1180 h | half-life [2, 7]: ~1190 h | canine half-life ([2]; cassette-dosed, single dosage): ≤ 1180 h | increase in plasma half-life in canines ([2]; fast metabolizing subtype): 207 fold | increase in plasma half-life in canines ([2]; slow metabolizing subtype): 691 fold | duration of therapeutically effective blood concentration ([2]; without increased or additional dosing): at least 24 hours

COc1ccc(-c2cc(C(F)(F)F)nn2-c2ccc(S(N)(=O)=O)cc2)cc1Cl [4-[5-(3-chloro-4-methoxyphenyl)-3-(trifluoromethyl)-1H-pyrazol-1-yl]benzenesulfonamide]
half-life [2, 7]: ~22 h

Cc1cc(-c2cc(C(F)(F)F)nn2-c2ccc(S(N)(=O)=O)cc2)ccc1Cl [4-[5-(4-chloro-3-methylphenyl)-3-(trifluoromethyl)-1H-pyrazol-1-yl]benzenesulfonamide]
IC50 (hCOX-1): 4920 nM | IC50 (hCOX-2): < 137 nM | half-life [2, 7]: ~44 h | half-life [3]: 12 h

Cc1ccc(-c2cc(C(F)(F)F)nn2-c2ccc(S(N)(=O)=O)cc2)cc1 [4-[5-(4-methylphenyl)-3-(trifluoromethyl)-1H-pyrazol-1-yl]benzenesulfonamide]
half-life ([1]; female, in vivo, female rats, non-cassette dosed, comparison data, read-out: Rat t1/2 in Female (converted)): 14 h | half-life ([1]; male, in vivo, male rats, non-cassette dosed, comparison data, read-out: Rat t1/2 in Male (converted)): 3.73 h | Canine t1/2 ([5]; comparison data for the 4-methylphenyl compound): 1.72 to 5.18 h | effective half-life in canines ([5]; fast metabolizing subtype (so in the source)): 5.72 h | effective half-life in canines ([5]; slow metabolizing subtype (so in the source)): 1.72 h

Cc1ccc(-c2cc(C(F)(F)F)nn2-c2ccc(S(N)(=O)=O)cc2)cc1Cl [4-[5-(3-chloro-4-methylphenyl)-3-(trifluoromethyl)-1H-pyrazol-1-yl]benzenesulfonamide]
IC50 (hCOX-1): 57000 nM and 12500 nM and 14300 nM | hCOX selectivity hCOX-1/hCOX-2 (hCOX-2): 2289 | IC50 (hCOX-2): 24.9 nM and < 137 nM and 7 nM | half-life [1, 6]: 5.1 h | half-life [2, 7]: 17 h
